The target in the assay is EP4 (Homo sapiens, UniProt P35408). As to the kind of experiment: EP4 binding (Ki / IC50).

The values below come from US20170151261A1, “SKIN WOUND HEALING AND SCAR REDUCTION WITH PROSTAGLANDIN EP4 AGONIST COMBINATIONS” (Allergan, Inc., priority 2012, published 2017).

Usually IC50 stands for the midpoint of a concentration-inhibition curve. A high value points to weaker potency.

Chain of EP4 (P35408 whole entry): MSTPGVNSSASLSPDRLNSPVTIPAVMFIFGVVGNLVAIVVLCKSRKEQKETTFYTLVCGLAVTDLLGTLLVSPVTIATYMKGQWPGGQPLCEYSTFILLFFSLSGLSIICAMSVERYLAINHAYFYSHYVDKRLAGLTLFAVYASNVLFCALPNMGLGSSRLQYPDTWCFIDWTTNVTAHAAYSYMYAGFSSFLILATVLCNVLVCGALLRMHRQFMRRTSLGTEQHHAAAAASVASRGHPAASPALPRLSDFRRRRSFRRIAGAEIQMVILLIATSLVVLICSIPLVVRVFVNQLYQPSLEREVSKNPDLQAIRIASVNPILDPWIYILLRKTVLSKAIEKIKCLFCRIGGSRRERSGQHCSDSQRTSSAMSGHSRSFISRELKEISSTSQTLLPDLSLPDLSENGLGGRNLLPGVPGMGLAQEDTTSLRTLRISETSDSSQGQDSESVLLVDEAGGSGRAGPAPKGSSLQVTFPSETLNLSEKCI

As to `CCCCC[C@H](O)c1ccc(N2C(=O)CC[C@@H]2CCCc2ccc(C(=O)O)s2)cc1`, the concentration for half-maximal inhibition (IC50) is > 10 µM.
